Values of other authors, collected in article PMC10329699, “Pharmacokinetics, biodistribution and toxicology of novel cell-penetrating peptides” (Scientific Reports, 2023).
Read-outs that look alike come from different tables or passages of the source.

Key:
[1] = literature values for comparison
Text: Considering their smaller size (up to 30 amino acids in length), cationic and/or amphipathic CPPs have a greater potential to penetrate the BBB than other transport systems. […] For the sake of comparison, a control IgG, an IgG binding ...

## OC[C@H]1OC(O)[C@H](O)[C@@H](O)[C@@H]1O (stereo partly drawn) [glucose]
[1]
  Clup (brain uptake coefficient), comparison values: ≈ 1 µl g^−1 s^−1

## penetratin
human
  half-life (stability in human serum): 1.2 h

## TAT
In vitro at 37 °C in human serum
  half-life (stability in human serum): 8.8 h
